Data published in patent US11834432B2, “Substituted amino six-membered nitric heterocyclic ring compound and preparation and use thereof” (SHANGHAI INSTITUTE OF MATERIA MEDICA, CHINESE ACADEMY OF …, priority 2016, dated 2023).

Experiments:
[1] = target: FGFR1 kinase domain recombinant protein (Homo sapiens (Human), UniProt P11362); experiment: Inhibition of receptor tyrosine kinase FGFR1 activity (ELISA); format: biochemical
Description: 1. Preliminary Evaluation Inhibition on Receptor Tyrosine Kinase FGFR1 Activity of Compound
1. […] The liquid from the well was discarded. The plate was washed for three times with T-PBS (0.1% Tween-20 in potassium-free PBS, 200 μL/well), 5 minutes for each time. The elisa plate was dried in 37° C. dryer for 1-2 hours.
2. 49 μL of ATP solution diluted in reaction buffer (50 mM HEPES pH 7.4, 50 mM MgCl2, 0.5 mM MnCl2, 0.2 mM Na3VO4, 1 mM DTT) was added into each well, and 1 μL of the test compound was added to each well, and then 50 μL of FGFR1 kinase domain recombinant protein diluted in reaction buffer was added to initiate the reaction, and two control wells without ATP were required for each experiment. The reaction was performed on a Shaker (100 rpm) at 37° C. for 1 hour. The liquid from the well was discarded, and the plate was washed with T-PBS for three times.
3. The antibody PY99 dilution (antibody diluted 1:500 in T-PBS with BSA 5 mg/mL) was added at 100 μL/well, and shaken for 0.5 hours on a 37° C. shaker. The liquid from the well was discarded, and the plate was washed with T-PBS for three times.
4. The horseradish peroxidase-labeled goat anti-mouse second antibody dilution (antibody diluted 1:2000 in T-PBS with BSA 5 mg/mL) was added at 100 μL/well, and shaken for 0.5 hours on a 37° C. shaker. The liquid from the well was discarded, and the plate was washed with T-PBS for three times.
5. 2 mg/mL OPD coloration solution (diluted with 0.1 M citric acid-sodium citrate buffer containing 0.03% H2O2 (pH=5.4)) was added at 100 μL/well, and reacted for 1-10 minutes at 25° C. in darkness.
6. The reaction was quenched with 50 μL/well of 2M H2SO4, and the plate was read using a tunable microplate microplate reader VERSAmax at 490 nm.
(§1) The IC50 values were obtained by four-parameter regression analysis using the software supplied with the microplate reader.

SNU16 cells = experiment: Inhibition of proliferation of SNU16 cells (CCK-8); format: cell-based; settings: Homo sapiens, SNU-16, 72 h
Description: The inhibitory effect on proliferation of SNU16 cells of a compound was examined by CCK-8 Cell Counting Kit (Dojindo). The steps are as follows: SNUI 6 cells at Logarithmic growth phase were seeded in a 96-well culture plate at appropriate density, 90 ul for each well. After cultured overnight, different concentrations of drugs were added and treated for 72 h, while solvent control well was set (negative control). After 72 h, the influence of the compound on the proliferation of cells was observed by CCK-8 cell counting kit (Dojindo). 10 μL of CCK-8 reagent was added to each well. After incubated for 2-4 hours in a 37° C. incubator, the plate was read with SpectraMax 190 microplate reader at wavelength 450 nm.
as §1

Pharmacokinetics in rats = format: in vivo; settings: male, rat, plasma, SD rats
Description: Seven SD rats, male, weighing 200-220 g, were randomly divided into two groups, 4 or 3 in each group. Compound S10 was administrated by intragastric or intravenous administration.
Rats were fasted for 12 h before test, and had access to water ad libitum. The rats were uniformly fed 2 h after administration of.
Blood sample time point and sample preparation:
intragastric administration: 0.25, 0.5, 1.0, 2.0, 4.0, 6.0, 8.0 and 24 h after administration;
intravenous administration: 5 min, 0.25, 0.5, 1.0, 2.0, 4.0, 6.0, 8.0 and 24 h after administration;
0.3 mL of venous blood was collected at the above time points via the rat eye vein venous plexus, placed in a heparinized test tube, and centrifuged at 11000 rpm for 5 min, and plasma was separated and frozen in a −20° C. refrigerator.
S10 in rat plasma was determined by LC/MS/MS.
The pharmacokinetic parameters after administration were calculated by a non-compartmental model of WinNonlin 6.3 software (Pharsight, USA).
The peak concentration Cmax and the peak time Tmax are measured values; The area under the curve of the drug-time AUC0-t value: calculated by the trapezoidal method; AUC0-∞=AUC0-t+Ct/ke, Ct is the blood concentration of drug at the last measurable time point;
ke is the elimination rate constant;
Elimination half-life t1/2=0.693/ke;
Clearance rate CL=D/AUC0-∞;
Volume of steady state distribution Vss=CL×MRT;

EGFR = EGFR (Homo sapiens (Human), UniProt P00533); experiment: In vitro tyrosine kinase inhibition screening (ELISA); format: biochemical; settings: 1 h
Description: (§2) 4. In Vitro Screening Test on Tyrosine Kinase Activity Inhibition Screening method: Enzyme-linked immunosorbent assay (ELISA) tyrosine kinase: Enzyme spectrum Time of action: 1 h

IGF1R = IGF1R (Homo sapiens (Human), UniProt P08069); experiment: as above; format: biochemical; settings: 1 h
Sequence of IGF1R (P08069 31-1367, species assumed): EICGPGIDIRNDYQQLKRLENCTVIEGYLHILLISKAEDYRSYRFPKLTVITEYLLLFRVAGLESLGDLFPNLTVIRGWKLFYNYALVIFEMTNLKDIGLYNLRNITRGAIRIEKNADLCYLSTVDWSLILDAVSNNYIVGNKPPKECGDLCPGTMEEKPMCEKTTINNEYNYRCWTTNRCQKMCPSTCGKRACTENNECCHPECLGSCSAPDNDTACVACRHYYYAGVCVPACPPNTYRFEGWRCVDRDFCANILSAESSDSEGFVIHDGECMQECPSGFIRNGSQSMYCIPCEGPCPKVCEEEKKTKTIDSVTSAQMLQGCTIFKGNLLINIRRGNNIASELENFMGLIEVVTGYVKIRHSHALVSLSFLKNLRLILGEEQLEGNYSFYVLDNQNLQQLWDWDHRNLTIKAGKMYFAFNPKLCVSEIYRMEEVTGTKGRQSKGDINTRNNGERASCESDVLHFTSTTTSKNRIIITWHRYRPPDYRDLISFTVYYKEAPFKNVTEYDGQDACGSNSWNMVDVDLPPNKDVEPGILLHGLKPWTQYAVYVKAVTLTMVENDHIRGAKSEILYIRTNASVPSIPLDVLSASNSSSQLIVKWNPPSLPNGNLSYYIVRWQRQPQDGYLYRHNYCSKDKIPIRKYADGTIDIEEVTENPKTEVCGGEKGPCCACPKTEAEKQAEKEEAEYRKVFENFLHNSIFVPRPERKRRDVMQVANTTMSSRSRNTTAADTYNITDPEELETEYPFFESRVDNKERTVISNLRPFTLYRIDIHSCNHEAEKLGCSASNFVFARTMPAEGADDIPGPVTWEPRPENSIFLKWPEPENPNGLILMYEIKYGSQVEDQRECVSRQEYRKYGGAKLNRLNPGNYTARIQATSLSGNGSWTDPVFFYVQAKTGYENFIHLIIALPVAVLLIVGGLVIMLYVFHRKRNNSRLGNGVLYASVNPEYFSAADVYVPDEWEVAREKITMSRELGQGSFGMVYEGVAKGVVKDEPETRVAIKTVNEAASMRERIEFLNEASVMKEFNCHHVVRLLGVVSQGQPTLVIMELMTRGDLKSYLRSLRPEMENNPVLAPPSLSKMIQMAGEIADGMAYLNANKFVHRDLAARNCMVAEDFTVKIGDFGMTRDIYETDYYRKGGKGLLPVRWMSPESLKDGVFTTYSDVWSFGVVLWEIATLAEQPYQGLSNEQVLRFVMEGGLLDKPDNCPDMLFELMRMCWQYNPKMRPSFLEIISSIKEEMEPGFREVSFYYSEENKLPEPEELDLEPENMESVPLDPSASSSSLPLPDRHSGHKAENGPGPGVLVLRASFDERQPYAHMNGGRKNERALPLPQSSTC
Description: as §2

c-Src = c-Src (Homo sapiens (Human), UniProt P12931); experiment: as above; format: biochemical; settings: 1 h
Sequence of c-Src (P12931 whole entry, looked up, species assumed): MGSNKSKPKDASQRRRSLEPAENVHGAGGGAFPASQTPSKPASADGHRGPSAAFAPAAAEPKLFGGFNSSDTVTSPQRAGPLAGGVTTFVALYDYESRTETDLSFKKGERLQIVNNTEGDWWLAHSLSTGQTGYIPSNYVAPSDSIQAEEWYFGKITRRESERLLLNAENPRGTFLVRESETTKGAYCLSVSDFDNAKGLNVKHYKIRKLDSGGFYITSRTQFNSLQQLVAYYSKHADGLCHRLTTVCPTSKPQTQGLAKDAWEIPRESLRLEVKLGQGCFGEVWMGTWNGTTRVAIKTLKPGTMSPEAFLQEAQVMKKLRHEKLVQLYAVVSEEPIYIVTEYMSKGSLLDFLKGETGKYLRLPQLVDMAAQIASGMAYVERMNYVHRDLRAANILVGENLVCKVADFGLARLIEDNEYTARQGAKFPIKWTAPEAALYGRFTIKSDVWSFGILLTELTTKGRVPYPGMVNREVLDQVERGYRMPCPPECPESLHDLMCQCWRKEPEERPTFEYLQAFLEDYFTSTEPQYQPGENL
Description: as §2

ErbB4 = ErbB4 (Homo sapiens (Human), UniProt Q15303); experiment: as above; format: biochemical; settings: 1 h
Sequence of ErbB4 (Q15303 26-1308, species assumed): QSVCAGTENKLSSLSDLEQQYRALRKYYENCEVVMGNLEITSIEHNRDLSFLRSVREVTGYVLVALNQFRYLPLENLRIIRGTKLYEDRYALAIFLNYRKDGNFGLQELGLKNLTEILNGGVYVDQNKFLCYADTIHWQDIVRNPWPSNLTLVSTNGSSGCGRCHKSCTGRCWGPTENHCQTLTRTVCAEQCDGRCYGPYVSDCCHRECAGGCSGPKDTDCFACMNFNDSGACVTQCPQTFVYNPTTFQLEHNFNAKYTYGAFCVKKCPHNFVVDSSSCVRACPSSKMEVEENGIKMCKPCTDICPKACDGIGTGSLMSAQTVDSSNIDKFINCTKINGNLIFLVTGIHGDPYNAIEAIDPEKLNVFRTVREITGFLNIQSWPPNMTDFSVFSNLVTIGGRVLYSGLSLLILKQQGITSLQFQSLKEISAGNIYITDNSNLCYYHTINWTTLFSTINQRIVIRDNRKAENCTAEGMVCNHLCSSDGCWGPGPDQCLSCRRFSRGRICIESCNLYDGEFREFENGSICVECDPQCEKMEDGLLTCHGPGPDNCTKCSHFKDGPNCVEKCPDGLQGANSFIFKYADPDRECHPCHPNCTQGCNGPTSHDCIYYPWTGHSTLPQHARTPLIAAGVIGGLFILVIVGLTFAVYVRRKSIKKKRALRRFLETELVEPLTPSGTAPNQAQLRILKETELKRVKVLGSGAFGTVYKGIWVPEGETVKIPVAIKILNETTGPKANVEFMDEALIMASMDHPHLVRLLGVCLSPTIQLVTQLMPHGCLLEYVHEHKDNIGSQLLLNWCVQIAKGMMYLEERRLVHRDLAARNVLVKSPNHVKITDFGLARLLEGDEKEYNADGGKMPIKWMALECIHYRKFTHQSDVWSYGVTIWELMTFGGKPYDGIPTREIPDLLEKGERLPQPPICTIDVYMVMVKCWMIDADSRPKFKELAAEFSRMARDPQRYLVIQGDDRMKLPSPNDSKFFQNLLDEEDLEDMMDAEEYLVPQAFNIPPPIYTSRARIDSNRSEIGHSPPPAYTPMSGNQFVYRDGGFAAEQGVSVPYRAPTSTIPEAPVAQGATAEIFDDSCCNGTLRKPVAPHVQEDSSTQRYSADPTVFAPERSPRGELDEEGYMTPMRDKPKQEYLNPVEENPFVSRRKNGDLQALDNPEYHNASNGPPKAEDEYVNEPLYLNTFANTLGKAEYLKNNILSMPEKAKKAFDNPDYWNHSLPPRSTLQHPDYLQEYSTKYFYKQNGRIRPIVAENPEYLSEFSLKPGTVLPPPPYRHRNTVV
Description: as §2

VEGFR-2 = VEGFR-2 (Homo sapiens (Human), UniProt P35968); experiment: as above; format: biochemical; settings: 1 h
Description: as §2

c-Met = c-Met (Homo sapiens (Human), UniProt P08581); experiment: as above; format: biochemical; settings: 1 h
Sequence of c-Met (P08581 25-1390): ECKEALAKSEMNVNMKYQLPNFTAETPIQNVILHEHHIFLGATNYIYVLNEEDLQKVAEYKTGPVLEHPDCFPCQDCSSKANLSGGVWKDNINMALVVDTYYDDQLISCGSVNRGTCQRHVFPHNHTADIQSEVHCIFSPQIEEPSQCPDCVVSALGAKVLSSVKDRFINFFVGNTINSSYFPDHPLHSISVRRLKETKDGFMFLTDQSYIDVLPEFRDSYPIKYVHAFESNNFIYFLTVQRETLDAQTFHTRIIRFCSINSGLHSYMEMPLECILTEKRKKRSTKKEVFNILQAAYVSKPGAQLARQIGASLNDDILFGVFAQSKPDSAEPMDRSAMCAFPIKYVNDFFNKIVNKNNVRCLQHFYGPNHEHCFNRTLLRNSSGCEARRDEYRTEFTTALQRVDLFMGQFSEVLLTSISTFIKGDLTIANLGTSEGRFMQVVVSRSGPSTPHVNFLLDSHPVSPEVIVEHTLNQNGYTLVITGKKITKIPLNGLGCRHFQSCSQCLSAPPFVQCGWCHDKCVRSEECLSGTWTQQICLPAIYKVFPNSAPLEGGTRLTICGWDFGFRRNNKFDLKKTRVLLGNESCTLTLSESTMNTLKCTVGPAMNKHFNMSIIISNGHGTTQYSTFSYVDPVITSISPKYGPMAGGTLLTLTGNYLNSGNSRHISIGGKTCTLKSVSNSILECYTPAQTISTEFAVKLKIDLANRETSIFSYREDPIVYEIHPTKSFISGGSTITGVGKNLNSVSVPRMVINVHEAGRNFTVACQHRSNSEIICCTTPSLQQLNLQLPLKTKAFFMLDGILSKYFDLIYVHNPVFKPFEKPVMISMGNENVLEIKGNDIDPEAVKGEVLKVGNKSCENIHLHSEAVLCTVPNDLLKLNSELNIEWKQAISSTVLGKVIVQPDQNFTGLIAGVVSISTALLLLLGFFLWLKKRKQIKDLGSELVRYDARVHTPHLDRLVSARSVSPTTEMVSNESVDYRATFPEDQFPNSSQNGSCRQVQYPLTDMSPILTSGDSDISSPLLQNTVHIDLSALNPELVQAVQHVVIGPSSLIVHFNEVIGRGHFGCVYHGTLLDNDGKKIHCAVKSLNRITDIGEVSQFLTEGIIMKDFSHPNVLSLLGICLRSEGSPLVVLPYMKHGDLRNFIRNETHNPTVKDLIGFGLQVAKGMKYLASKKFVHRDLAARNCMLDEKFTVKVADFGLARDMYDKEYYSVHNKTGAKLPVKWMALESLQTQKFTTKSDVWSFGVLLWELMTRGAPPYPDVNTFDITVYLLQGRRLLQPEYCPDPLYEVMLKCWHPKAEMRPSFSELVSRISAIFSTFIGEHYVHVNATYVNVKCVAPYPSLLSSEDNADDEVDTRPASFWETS
Description: as §2

PDGFR-α = PDGFR-α (Homo sapiens (Human), UniProt P16234); experiment: as above; format: biochemical; settings: 1 h
Description: as §2

ABL = ABL (Homo sapiens (Human), UniProt P00519); experiment: as above; format: biochemical; settings: 1 h
Description: as §2

VEGFR-1 = VEGFR-1 (Homo sapiens (Human), UniProt P17948); experiment: as above; format: biochemical; settings: 1 h
Description: as §2

PDGFR-β = PDGFR-β (Homo sapiens (Human), UniProt P09619); experiment: as above; format: biochemical; settings: 1 h
Description: as §2

Sequence of FGFR1 kinase domain recombinant protein (P11362 478-767): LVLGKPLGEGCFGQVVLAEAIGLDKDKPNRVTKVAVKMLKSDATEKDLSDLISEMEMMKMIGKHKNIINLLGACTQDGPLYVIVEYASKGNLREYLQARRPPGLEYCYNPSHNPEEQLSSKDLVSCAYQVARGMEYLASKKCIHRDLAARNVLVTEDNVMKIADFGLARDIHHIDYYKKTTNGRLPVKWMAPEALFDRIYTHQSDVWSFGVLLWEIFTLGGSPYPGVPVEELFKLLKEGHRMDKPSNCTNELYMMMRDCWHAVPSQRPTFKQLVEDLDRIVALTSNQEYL

## CNC(=O)c1cccc2cc(Oc3ccnc(NC(=O)c4ccc(N5C[C@@H](C)N[C@@H](C)C5)cc4)c3)ccc12 [Compound S10]
[1]
  IC50: < 10 nM
[1]; 1 h, read-out: Inhibition ratio (%) @ 0.1 μM
  inhibition at 0.1 µM: 94%
SNU16 cells
  IC50: 6.1 nM
SNU16 cells; 10 nM, 72 h, read-out: Inhibition ratio (%)
  inhibition at 0.01 µM: 59.6%
SNU16 cells; 100 nM, 72 h, read-out: Inhibition ratio (%)
  inhibition at 0.1 µM: 62.1%
SNU16 cells; 1000 nM, 72 h, read-out: Inhibition ratio (%)
  inhibition at 1 µM: 59.7%
Pharmacokinetics in rats; oral, intragastric 10 mg/kg vs intravenous 5 mg/kg
  bioavailability: 79.6%
Pharmacokinetics in rats; po, intragastric 10 mg/kg
  AUC(0-t): 3430 ng·h/mL
  Cmax: 399 ng/mL
  Tmax: 4.5 h
  half-life: 3.55 h
Pharmacokinetics in rats; intravenous 5 mg/kg
  clearance: 40.8 mL/min/kg
  half-life: 3.69 h
Pharmacokinetics in rats; intravenous 5 mg/kg, read-out: Vss
  Vd: 11.3 L/kg
EGFR; 10 nM
  Inhibition ratio (%) EGFR: 9.6%
EGFR; 1000 nM
  Inhibition ratio (%) EGFR: 11.3%
IGF1R; 10 nM
  Inhibition ratio (%) IGF1R: 23.5%
IGF1R; 1000 nM
  Inhibition ratio (%) IGF1R: 11.0%
c-Src; 10 nM
  Inhibition ratio (%) c-Src: 20.3%
c-Src; 1000 nM
  Inhibition ratio (%) c-Src: 43.6%
ErbB4; 10 nM
  Inhibition ratio (%) ErbB4: 2.0%
ErbB4; 1000 nM
  Inhibition ratio (%) ErbB4: 7.0%
VEGFR-2; 10 nM
  Inhibition ratio (%) VEGFR-2: 90.4%
VEGFR-2; 1000 nM
  Inhibition ratio (%) VEGFR-2: 98.7%
c-Met; 10 nM
  Inhibition ratio (%) c-Met: 11.2%
c-Met; 1000 nM
  Inhibition ratio (%) c-Met: 29.5%
PDGFR-α; 10 nM
  Inhibition ratio (%) PDGFR-α: 50.2%
PDGFR-α; 1000 nM
  Inhibition ratio (%) PDGFR-α: 87.1%
ABL; 10 nM
  Inhibition ratio (%) ABL: 17.5%
ABL; 1000 nM
  Inhibition ratio (%) ABL: 28.8%
VEGFR-1; 10 nM
  Inhibition ratio (%) VEGFR-1: 75.6%
VEGFR-1; 1000 nM
  Inhibition ratio (%) VEGFR-1: 100.0%
PDGFR-β; 10 nM
  Inhibition ratio (%) PDGFR-β: 56.4%
PDGFR-β; 1000 nM
  Inhibition ratio (%) PDGFR-β: 87.8%
